Data on eight compounds can be found in patent US8404866B2, “Substituted heterocyclic mercaptosulfonamide metalloprotease inhibitors” (Florida State University Research Foundation, priority 2008, dated 2013).

In experiment [1] the target is MMP-3 (HFS; human fibroblast stromelysin-1) (Homo sapiens, UniProt P08254). Put plainly: Enzyme kinetic assay, inhibition of MMP-3. It is filed as biochemical. The settings on record: read-out: Ki (value in parentheses), HFS MMP-3. The source says: (§1) The following protocol was used to obtain the data found in the following table. Materials: The fluorescent peptide substrates for matrix metalloproteinases (MMPs) used were purchased from Bachem Chem. Co. The metal salts and Brij-35 were purchased from Fisher Scientific Inc. All other chemicals were purchased from Sigma-Aldrich Chem. Co. The sources and biochemical characterizations of multiple MMPs, including MMP-1/human fibroblast collagenase (HFC), MMP-2/human fibroblast gelatinase (HFG), MMP-8/human neutrophil collagenase (HNC), and MMP-9/human neutrophil gelatinase (HNG), MMP-7/human matrilysin (MLN), MMP-3/human fibroblast stromelysin-1 (HFS), human recombinant catalytic domain of membrane-type 1 matrix metalloproteinase (cdMT1-MMP), catalytic domain of MMP-12/metalloelastase (cdMET), and MMP-26/human endometase (EDM) were described previously (Sang, Q. X., Birkedal-Hansen, H., and Van Wart, H. E. Proteolytic and non-proteolytic activation of human neutrophil progelatinase B. Biochim. Biophys. Acta. 1995; 1251, 99-108; Sang, Q. A., Bodden, M. K., and Windsor, L. J. Activation of human progelatinase A by collagenase and matrilysin: activation of procollagenase by matrilysin. J. Protein. Chem. 1996; 15, 243-253; Li, H., Bauzon, D. E., Xu, X., Tschesche, H., Cao, J., and Sang, Q.-X. A. Immunological characterization of cell-surface and soluble forms of membrane type 1 matrix metalloproteinase in human breast cancer cells and in fibroblasts. Molec. Carcinog. 1998; 22, 84-94; Park, H. I., Ni, J., Gerkema, F. E., Liu, D., Belozerov, V. E., and Sang, Q.-X. A. Identification and characterization of human endometase (Matrix metalloproteinase-26) from endometrial tumor. J. Biol. Chem., 2000; 275, 20540-20544). The active concentrations of MMPs were determined by titration with GM6001, a tight-binding MMP inhibitor, as described previously (Park, H. I., Turk, B. E., Gerkema, F. E., Cantley, L. C., and Sang, Q.-X. A. Peptide substrate specificities and protein cleavage sites of human endometase/matrilysin-2/matrix metalloproteinase-26. J. Biol. Chem. 2002; 277, 35168-35175).
(§2) The active inhibitor concentrations were estimated by titrating the mercapto group with 5,5′-dithiobis(2-nitrobenzoic acid) (DTNB; Ellman's reagent) as described previously (Ellman, G. L. A colorimetric method for determining low concentrations of mercaptans. Arch. Biochem. Biophys. 1958; 74, 443-450; Ellman, G. L. Tissue sulfhydryl groups. Arch. Biochem. Biophys. 1959; 82, 70-77; Riddles, P. W., Blakeley, R. L., and Zerner, B. Ellman's reagent: 5,5′-dithiobis(2-nitrobenzoic acid)—a reexamination. Anal. Biochem. 1979; 94, 75-81). Briefly, the reaction of DTNB with the mercapto group produces 2-nitro-5-thiobenzoic acid (TNB). The concentration of TNB is then measured by monitoring the absorbance at 412 nm. Cysteine was used to generate the standard curve with a molar extinction coefficient of 14,000±500 M^−1 cm^−1, which is close to the value in the literature (Riddles, P. W., Blakeley, R. L., and Zerner, B. Ellman's reagent: 5,5′-dithiobis(2-nitrobenzoic acid)—a reexamination. Anal. Biochem. 1979; 94, 75-81).
(§3) The substrate Mca-PLGLDpaAR-NH2 was used to measure inhibition constants (Knight, C. G., Willenbrock. F., and Murphy, G. A novel coumarin-labelled peptide for sensitive continuous assays of the matrix metalloproteinases. FEBS Lett. 1992; 296, 263-266). Enzymatic assays were performed at 25° C. in 50 mM HEPES buffer at pH 7.5 in the presence of 10 mM CaCl2, 0.2 M NaCl, and 0.01% or 0.05% Brij-35 with substrate concentrations of 1 μM. The release of product was monitored by measuring fluorescence (excitation and emission wavelengths of 328 nm and 393 nm, respectively) with a Perkin Elmer Luminescence Spectrophotometer LS 50B connected to a temperature controlled water bath. All stock solutions of inhibitors were in dimethyl sulfoxide. […]

Experiment [2] addresses MMP-9 (HNG; human neutrophil gelatinase) (Homo sapiens, UniProt P14780). The experiment is described as follows: Enzyme kinetic assay, inhibition of MMP-9. It is filed as biochemical. The settings on record: read-out: Ki (value in parentheses), HNG MMP-9.
Excerpt: as §1, §2, §3

Experiment [3] addresses T1, MMP-2 (HFG; human fibroblast gelatinase) (Homo sapiens, UniProt P08253).
T1 sequence (P08253 110-660): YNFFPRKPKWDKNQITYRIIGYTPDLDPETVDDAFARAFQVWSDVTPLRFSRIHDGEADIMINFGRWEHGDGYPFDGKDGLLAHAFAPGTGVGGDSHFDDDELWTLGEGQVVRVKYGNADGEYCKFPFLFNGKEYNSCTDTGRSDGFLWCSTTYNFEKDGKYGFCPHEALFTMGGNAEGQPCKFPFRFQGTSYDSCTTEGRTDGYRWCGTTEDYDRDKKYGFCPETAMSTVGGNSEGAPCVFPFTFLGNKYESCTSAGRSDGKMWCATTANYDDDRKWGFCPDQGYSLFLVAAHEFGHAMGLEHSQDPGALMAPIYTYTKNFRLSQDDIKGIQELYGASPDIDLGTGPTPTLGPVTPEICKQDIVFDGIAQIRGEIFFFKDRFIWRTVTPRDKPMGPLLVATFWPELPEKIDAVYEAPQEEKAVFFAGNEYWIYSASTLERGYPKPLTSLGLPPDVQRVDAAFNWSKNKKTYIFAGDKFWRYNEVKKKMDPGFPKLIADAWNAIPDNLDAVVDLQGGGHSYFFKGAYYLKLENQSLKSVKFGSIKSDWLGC
Put plainly: Enzyme kinetic assay, inhibition of MMP-2. It is filed as biochemical. The following applies: read-out: Ki (value in parentheses), HFG MMP-2.
Excerpt: as §1, §2, §3

Experiment [4] deals with T2, MMP-1 (HFC; human fibroblast collagenase) (Homo sapiens, UniProt P03956).
T2 sequence (P03956 100-469): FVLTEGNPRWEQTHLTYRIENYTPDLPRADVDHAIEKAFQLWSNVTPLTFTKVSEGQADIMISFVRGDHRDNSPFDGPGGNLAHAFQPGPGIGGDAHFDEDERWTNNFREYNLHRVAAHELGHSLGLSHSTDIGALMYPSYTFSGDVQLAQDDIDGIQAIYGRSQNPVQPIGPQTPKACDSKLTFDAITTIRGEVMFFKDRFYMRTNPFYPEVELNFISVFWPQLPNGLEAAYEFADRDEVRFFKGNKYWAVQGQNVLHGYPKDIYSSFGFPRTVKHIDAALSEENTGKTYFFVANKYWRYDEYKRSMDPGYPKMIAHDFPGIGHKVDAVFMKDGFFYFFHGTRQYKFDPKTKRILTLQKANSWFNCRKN
The experiment is described as follows: Enzyme kinetic assay, inhibition of MMP-1. It is filed as biochemical. The following applies: 25° C., pH 7.5, substrate 1 μM; read-out: IC50 (value without parentheses), HFC MMP-1.
Excerpt: as §1, §2, §3

Experiment [5] concerns lethal acute GVHD. The following applies: mouse model of lethal acute GVHD; cited from earlier work.
Experiment [6] relates to insulin resistance. The settings on record: mouse model of insulin resistance; cited from earlier work.
Experiment [7] deals with stented arteries. The following applies: compared to placebo; cited from earlier work.
Experiment [8] deals with EAE animal model. The settings on record: administered daily from disease induction or from onset of clinical signs; cited from earlier work.
The test system of experiment [9] is kidneys. The following applies: given prior to disease induction; cited from earlier work.
The subject of experiment [10] is experimental autoimmune uveitis. The settings on record: cited from earlier work.
Experiment [11] has as its system blood-brain barrier. The following applies: ischemia reperfusion model in the rat; cited from earlier work.
Experiment [12] has as its system brain. The settings on record: following hemorrhage; cited from earlier work.
Experiment [13] has as its system EAN animal model. The following applies: cited from earlier work.

Where a name gives a salt, the structure may show the parent alone.

As a reminder, the Ki is a dissociation constant, usually derived from enzyme kinetics or from competition with a known ligand. A word on the IC50: it is the point on the concentration scale where inhibition reaches its midpoint.

MMP-9 (HNG; human neutrophil gelatinase), sequence (P14780 94-707): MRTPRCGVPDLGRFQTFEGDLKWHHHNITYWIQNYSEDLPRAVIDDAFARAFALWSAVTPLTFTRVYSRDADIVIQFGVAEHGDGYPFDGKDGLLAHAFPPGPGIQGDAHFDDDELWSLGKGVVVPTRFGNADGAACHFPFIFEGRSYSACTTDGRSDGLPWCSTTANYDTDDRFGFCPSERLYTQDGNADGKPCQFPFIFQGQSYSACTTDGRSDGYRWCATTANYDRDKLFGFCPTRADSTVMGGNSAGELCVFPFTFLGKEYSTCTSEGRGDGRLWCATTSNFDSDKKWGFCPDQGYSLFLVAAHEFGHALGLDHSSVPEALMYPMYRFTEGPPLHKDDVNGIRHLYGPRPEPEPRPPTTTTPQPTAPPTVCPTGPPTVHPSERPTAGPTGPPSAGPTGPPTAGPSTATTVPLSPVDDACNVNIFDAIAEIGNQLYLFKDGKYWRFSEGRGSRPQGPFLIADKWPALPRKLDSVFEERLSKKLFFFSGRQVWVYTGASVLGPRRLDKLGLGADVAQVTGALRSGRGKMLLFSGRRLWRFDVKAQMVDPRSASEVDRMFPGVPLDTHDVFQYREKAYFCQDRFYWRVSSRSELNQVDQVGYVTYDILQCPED
MMP-3 (HFS; human fibroblast stromelysin-1), sequence (P08254 100-477): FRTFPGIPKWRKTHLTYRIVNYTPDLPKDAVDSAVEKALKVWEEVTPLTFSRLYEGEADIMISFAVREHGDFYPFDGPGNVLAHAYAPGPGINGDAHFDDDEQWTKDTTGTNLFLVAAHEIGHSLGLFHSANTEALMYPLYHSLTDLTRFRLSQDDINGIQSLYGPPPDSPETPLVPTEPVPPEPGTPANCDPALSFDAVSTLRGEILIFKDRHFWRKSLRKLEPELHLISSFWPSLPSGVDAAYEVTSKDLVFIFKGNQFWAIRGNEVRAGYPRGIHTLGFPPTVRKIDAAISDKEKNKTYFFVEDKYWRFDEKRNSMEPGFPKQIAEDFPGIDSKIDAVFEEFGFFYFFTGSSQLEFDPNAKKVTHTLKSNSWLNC

For the compound `O=C(OCc1ccccc1)N1C[C@@H](S)[C@@H](NS(=O)(=O)c2ccc(Oc3ccccc3)cc2)C1` [Example 14, (3S,4R)—N-Cbz-3-(4-Phenoxybenzenesulfonamido)-4-mercaptopyrrolidine], the Ki in experiment [1] worked out at 3400 nM; in [2], 2200 nM; in experiment [3], 800 nM. Further, in experiment [4], the IC50 is above 3000 nM.
The like results for `O=S(=O)(N[C@@H]1CNC[C@H]1S)c1ccc(Oc2ccccc2)cc1` [Example 11, (3R,4R)-3-(4-Phenoxybenzenesulfonamido)-4-mercaptopyrrolidine Hydrochloride] were, in that order, 1600 nM, 230 nM, 49 nM and 6300 nM.
As for `CNC(=O)[C@@H](NC(=O)[C@H](CC(C)C)[C@H](C)C(=O)NO)c1ccccc1` [KB-R7785], the mortality result in [5] is given as “reduced mortality”. For the same compound, the “plasma glucose and insulin levels” value in experiment [6] is “significant decrease”.
As to `CNC(=O)[C@H](Cc1c[nH]c2ccccc12)NC(=O)[C@@H](CC(=O)NO)CC(C)C` [GM6001], in experiment [7], the “intimal hyperplasia and collagen content” value is given as “significantly inhibited”; the lumen area entry is “increasing the lumen area”; the rates of proliferation result is listed as “without affecting the rates of proliferation”. Also, in [8], the “clinical signs of EAE” value is reported as “suppressed the development or reversed clinical signs of EAE in a dose-dependent way”.
On to `O=S(=O)(N[C@H]1CNC[C@@H]1S)c1ccc(Oc2ccccc2)cc1` [Example 10, (3S,4S)-3-(4-Phenoxybenzenesulfonamido)-4-mercaptopyrrolidine Hydrochloride], for which the results for the Ki in experiment [1], in experiment [2] and in experiment [3] were 5900 nM, 210 nM and 38 nM, respectively. In experiment [4], the IC50 is 50000 nM.
With `C=CC[C@H](C(=O)NO)[C@@H](CC(C)C)C(=O)N[C@@H](Cc1ccccc1)C(=O)NC` [BB-1101], in [9], the “inflammatory response and damage” value was “significantly reduced”. In experiment [10], the retinal damage entry is given as “shown to reduce retinal damage”. Further, the “early phases of blood-brain barrier leakage” value in [11] is on record as “reduces”. Besides, in experiment [12], the secondary brain edema entry is “reduces”. Moreover, the “EAN symptoms, inflammation, demyelination, weight loss” value in experiment [13] (given from the initiation of EAN) was “prevented the development of symptoms and reduced inflammation, demyelination, and weight loss”. The EAN disease severity result in experiment [13] (given from the onset of symptoms) is on record as “significantly reduced disease severity”.
In the case of `O=C(OCc1ccccc1)N1C[C@H](S)[C@H](NS(=O)(=O)c2ccc(Oc3ccccc3)cc2)C1` [Example 13, (3R,4S)—N-Cbz-3-(4-Phenoxybenzenesulfonamido)-4-mercaptopyrrolidine], the Ki in [1] was found to be 5400 nM; in experiment [2], 3100 nM; in experiment [3], 1800 nM. Also, in experiment [4], the IC50 is around 125000 nM.
Turning to `NC(=O)N1C[C@H](NS(=O)(=O)c2ccc(Oc3ccccc3)cc2)[C@@H](S)C1` [Example 12, (3S,4S)—N-Carbamoyl-3-(4-phenoxybenzene-sulfonamido)-4-mercaptopyrrolidine], the inhibitory constant (Ki) in experiment [1] stood at 1700 nM; in experiment [2], 13 nM; in experiment [3], 10 nM.
